# Laboratory results taken from US20150050301A1, “Contiguous Overlapping Peptides for Treatment of House Dust Mites Allergy” (ANERGIS S.A., priority 2013, published 2015).
# Read-outs that look alike come from different tables or passages of the source.
# B1: Der p 2: purified natural Der p 2 house dust mite major allergen from Indoor Biotechnologies Ltd (protein)
# chain: DQVDVKDCANHEIKKVLVPGCHGSEPCIIHRGKPFQLEALFEANQNSKTAKIEIKASIDGLEVDVPGIDPNACHYMKCPLVKGQQYDIKYTWNVPKIAPKSENVVVTVKVLGDNGVLACAIATHAKIRD
# B2: Der p 1: purified natural Der p 1 house dust mite major allergen from Indoor Biotechnologies Ltd (protein)
# chain: TNACSINGNAPAEIDLRQMRTVTPIRMQGGCGSCWAFSGVAATESAYLAYRNQSLDLAEQELVDCASQHGCHGDTIPRGIEYIQHNGVVQESYYRYVAREQSCRRPNAQRFGISNYCQIYPPNVNKIREALAQTHSAIAVIIGIKDLDAFRHYDGRTIIQRDNGYQPNYHAVNIVGYSNAQGVDYWIVRNSWDTNWGDNGYGYFAANIDLMMIEEYPYVVIL
# Experiments:
# [1] = Solubility Characteristics of COPs; type: physicochemical
# Description: All COPs were synthesized by solid phase fmoc chemistry at research scale to allow determination of IgE binding. […] Peptides were resuspended either in water at 2 mg/ml or at 10 to 20 mg per ml in DMSO (see Table 1) and frozen in aliquots.
# [2] = test system: IgE of sera of house dust mite allergic patients binding to nDer p 2; assay: Competition ELISA on Der p 2 coated plates; design: species or system human; settings: for IgE binding in competition ELISA (Der p 2): sera from patients allergic to house dust mites, COPs 10^−5 to 10^−10 M
# Description: (§1) Purified Der p 1 or Der p 2 at 1.0 μg/ml were coated overnight on 96-well Nunc Maxisorp® immunoplates (Thermo Fisher Scientific Inc., Wohlen, Switzerland). After blocking with 1% BSA, either twenty-fold, thirty-fold or forty-fold up to 200-fold dilutions of patient serum were added depending on specific IgE content. […] Sera of allergic patients were obtained from US and Europe (PlasmaLab International, Everett, Wash., USA and Biomnis, Lyon, France) respectively) selected for positive CAP for D. pteronyssinus and clear signal over background and used to test for competition with the peptides. Serial dilutions of each set of COPs, namely for Der p 1 Set A, B, C or D and for Der p 2 mixes D, E or F at concentrations ranging from 10^−5 to 10^−10 M were pre-incubated with selected serums for 15 min. on ice.
# IgE = assay: Direct ELISA of Der p 2 COPs; type: binding, human
# [3] = test system: RBL-703/21 cells transfected with human Fc epsilon RI receptor, sensitized with sera from patients with house dust mite allergy; assay: RBL degranulation; type: cell-based; settings: RBL cells pre-loaded with 18 human serums; AllerDM up to 10^−5M
# Description: Degranulation assay was performed as described in [37]. RBL-703/21 cells transfected with human Fc epsilon RI receptor were plated in 96-well tissue culture plates (10^5 cells/well) overnight. Passive sensitization of RBL-703/21 cells was carried out with sera from patients with house dust mite allergy at 1:20 overnight. Unbound antibodies were removed by washing the cell layer twice in Hanks' balanced salt solution (Gibco, Life technologies) the next day. Degranulation of RBL cells was induced for 1 h at 37° C. by adding nDer p1, nDer p 2 or individual COPs and mixes at indicated concentrations diluted in Tyrode's buffer (130 mM NaCl, 5 mM KCl, 1.4 mM CaCl2, 1 mM MgCl2, 5.6 mM glucose, 10 mM HEPES pH7.4, 0.1% BSA). β-hexosaminidase activity was analyzed by incubating 30 μl of cell supernatant with 50 μl of 1.3 mg/ml 4-Nitrophenyl N-acetyl-β-D-glucosaminide (Sigma) in citrate buffer (0.1M, pH 4.5) for 1 h at 37° C. The reaction was stopped by addition of 100 μl glycine buffer (0.2M glycine, 0.2M NaCl, pH 10.7) and optical densities (OD) were measured at 405 nm.
# [4] = test system: IgE of sera of house dust mite allergic patients binding to nDer p 1; assay: Competition ELISA on Der p 1 coated plates; design: species or system human; settings: panel of 21 sera
# Description: as §1
Molecule,IgE binding in competition ELISA (Der p 2) [2],Conc. [1] [µg/mL],"basophil degranulation of RBL cells, serum panel [3]",further results
DQVDVKDCANHEIKKVLVPGCHGSEPCIIHRGKPFQLEAVFEANQNTKTAKIEIKASIDGLEVDVPGIDPNA [AllerDM2.1],did not bind IgE,–,–,Conc. ([1]; pH 5): 1000 µg/mL
SEPCIIHRGKPFQLEALFEANQNSKTAKIEIKASIDGLEVDVPGIDPNACHYMKCPLVKGQQYDIKYTWNVPKIA [AllerDM2.7],residual IgE binding,3500,–,–
SIDGLEVDVPGIDPNACHYMKCPLVKGQQYDIKYTWNVPKIAPKSENVVVTVKVMGDDGVLACAIATHAKIRD [AllerDM2.2],–,1700,–,"IgE binding in direct ELISA (IgE): found to bind IgE; effect of denaturing salts on IgE binding (Der p 2 competition ELISA) ([2]; denaturing salts incl. guanidinium chloride or urea, 30 min pre-incubation with 1M guanidinium chloride): strongly diminished IgE binding"
B1,–,–,able to induce degranulation,concentration range of competition (Der p 2 control) ([2]; panel of 21 sera): 10^−7 to 10^−9 M
B2,–,–,able to induce degranulation,concentration range of competition (Der p 1 control) [4]: 10^−7 to 10^−9 M
